Laboratory results as given in patent US9353075B2, “Disubstituted beta-lactones as inhibitors of N-acylethanolamine acid amidase (NAAA)” (The Regents of the University of California, priority 2011, dated 2016).

Target: r-NAAA (Rattus norvegicus (Rat), UniProt Q5KTC7)
Test: r-NAAA inhibition, rat lung lysosomal NAAA preparation, UPLC/MS
Type: biochemical
Settings: for inhibition at 3 µM: read-out: r-NAAA % inhib. @ 3 μM
Procedure: Lysosomal NAAA protein preparation were obtained by homogenizing male Sprague-Dawley rat lungs (Charles River) in 20 mM Tris-HCl buffer pH 7.4 containing 0.32M sucrose. Samples were centrifuged at 800×g for 15 minutes at 4° C. Supernatants were then centrifuged at 12,000 g for 30 minutes at 4° C. Pellets were then resuspended in PBS pH 7.4 and subjected to a freeze/thaw cycle at −80° C. The suspension was finally centrifuged at 105,000×g for 1 hour at 4° C. The supernatant was then used in the enzymatic assay.
NAAA protein preparation was pre-incubated with various concentrations of test compounds or vehicle control in 100 mM NaH2PO4/Citrate buffer, 1% Triton-X, 3 mM DTT (pH 4.5) for 30 minutes at 37° C. Samples were then incubated with heptadecenoylethanolamide (50 μM, Avanti Polar Lipids) at 37° C. for 30 min. The reaction was terminated by addition of cold methanol containing heptadecanoic acid (NuCheck Prep) as internal standard. Samples were then analyzed by UPLC/MS (Acquity, Waters). Heptadecenoic and heptadecanoic acids were eluted on an Acquity UPLC BEH C18 column (50 mm length, 2.1 mm i.d., 1.7 μm pore size, Waters) isocratically at 0.5 mL/min for 1.5 min with a solvent mixture of 95% methanol and 5% water, both containing 0.25% Acetic Acid and 5 mM Ammonium Acetate. The column temperature was 40° C. Electrospray ionization was in the negative mode, capillary voltage was 0.5 kV, cone voltage was […], desolvation temperature was 500° C. N2 was used as drying gas at a flow rate of 1000 L/hour and a temperature of 500° C. The [M−H]^− ion was monitored in the selected-ion monitoring mode (m/z values: heptadecenoic acid 267.37, heptadecanoic acid 269.37). Calibration curves were generated using commercial heptadecenoic acid (NuCheck Prep). Inhibition of NAAA activity was calculated as reduction of heptadecenoic acid in the samples compared to vehicle controls. IC50 values were calculated by non-linear regression analysis of log [concentration]/inhibition curves using GraphPad Prism 5 (GraphPad Software Inc., CA—USA) applying a standard slope curve fitting.

r-NAAA, sequence (Q5KTC7 34-362): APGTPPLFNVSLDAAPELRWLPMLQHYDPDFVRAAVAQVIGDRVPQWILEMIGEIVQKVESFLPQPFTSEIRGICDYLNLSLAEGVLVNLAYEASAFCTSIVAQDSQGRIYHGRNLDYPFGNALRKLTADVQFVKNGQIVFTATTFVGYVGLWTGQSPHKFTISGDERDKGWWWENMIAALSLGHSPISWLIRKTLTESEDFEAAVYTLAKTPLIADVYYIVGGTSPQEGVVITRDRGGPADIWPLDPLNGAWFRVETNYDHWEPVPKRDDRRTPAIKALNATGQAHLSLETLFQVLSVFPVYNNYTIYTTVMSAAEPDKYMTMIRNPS

IC50	SMILES	inhibition at 3 µM	other results
	CC(C)(C)[C@@H]1OC(=O)[C@@H]1NC(=O)OCc1ccc(-c2ccccc2)cc1 (relative stereo) [Example 59, (4-Phenyl-phenyl)-methyl-N-[(2S*,3R*)-2-tert-butyl-4-oxo-oxetan-3-yl]-carbamate]	57%	
	CC(C)[C@H]1OC(=O)[C@@H]1NC(=O)OCc1ccc(-c2ccccc2)cc1 (relative stereo) [Example 52, (4-Phenylphenyl)-methyl-N-[(2R*,3R*)-2-isopropyl-4-oxo-oxetan-3-yl]-carbamate]	93%	
1210 nM	Cc1ccc(CCOC(=O)N[C@H]2C(=O)O[C@H]2C)cc1 [Example 3, 2-(4-methylphenyl)ethyl-[(2S,3R)-2-methyl-4-oxooxetan-3-yl]-carbamate]		
1170 nM	C[C@@H]1OC(=O)[C@@H]1NC(=O)OCCCCCCc1ccccc1 [Example 34, 6-Phenylhexyl-N-[(2S,3R)-2-methyl-4-oxo-oxetan-3-yl]-carbamate]		
	C[C@@H]1OC(=O)[C@@H]1NC(=O)OCc1cccc(-c2ccccc2)c1 [Example 14, (3-phenylphenyl)-methyl-N-[(2S,3R)-2-methyl-4-oxo-oxetan-3-yl]-carbamate]		inhibition at 10 µM (read-out: r-NAAA % inhib. @ 10 μM): 28%
270 nM	CCCCCCOC(=O)N[C@H]1C(=O)O[C@H]1C [Example 39, Hexyl-N-[(2S,3R)-2-methyl-4-oxo-oxetan-3-yl]-carbamate]		
	CC(C)[C@@H]1OC(=O)[C@@H]1NC(=O)OCc1ccc(-c2ccccc2)cc1 (relative stereo) [Example 54, (4-Phenylphenyl)-methyl-N-[(2S*,3R*)-2-isopropyl-4-oxo-oxetan-3-yl]-carbamate]	53%	
	CC[C@H]1OC(=O)[C@@H]1NC(=O)OCc1ccc(-c2ccccc2)cc1 (relative stereo) [Example 48, (4-Phenylphenyl)-methyl-N-[(2R*,3R*)-2-ethyl-4-oxo-oxetan-3-yl]-carbamate]	100%	
100 nM	CC(C)C(CCCCc1ccccc1)OC(=O)N[C@H]1C(=O)O[C@H]1C (mixture of isomers) [Example 28, [(1R) and (1S)-1-Isopropyl-5-phenyl-pentyl]-N-[(2S,3R)-2-methyl-4-oxo-oxetan-3-yl]-carbamate]		
840 nM	C[C@@H]1OC(=O)[C@@H]1NC(=O)OC1(C)CCCCC1 [Example 10, (1-methylcyclohexyl)-[(2S,3R)-2-methyl-4-oxo-oxetan-3-yl]-carbamate]		
310 nM	C[C@@H]1OC(=O)[C@@H]1NC(=O)OC1CCC(Cc2ccccc2)CC1 (mixture of isomers) [Example 30, (1s,4S) and (1r, 4R)-(4-Benzylcyclohexyl)-N-[(2S,3R)-2-methyl-4-oxooxetan-3-yl]-carbamate]		
	C[C@@H]1OC(=O)[C@@H]1NC(=O)OC1CCN(Cc2ccccc2)CC1 [Example 21, (1-benzyl-4-piperidyl)-N-[(2S,3R)-2-methyl-4-oxo-oxetan-3-yl]-carbamate]	21%	
	C[C@@H]1OC(=O)[C@@H]1N(C)C(=O)OCCCCCc1ccccc1 [Example 41, 5-Phenylpentyl-N-methyl-N-[(2S,3R)-2-methyl-4-oxo-oxetan-3-yl]-carbamate]		r-NAAA IC50 (μM) or % inhib. (result in words): No inhib.
40000 nM	C[C@@H]1OC(=O)[C@@H]1NC(=O)OC1(C)CCOCC1 [Example 11, (4-methyltetrahydropyran-4-yl)-N-[(2S,3R)-2-methyl-4-oxo-oxetan-3-yl]-carbamate]		
	CC(C)[C@H]1OC(=O)[C@@H]1NC(=O)OCCCCCc1ccccc1 (relative stereo) [Example 51, 5-Phenylpentyl-N-[(2R*,3R*)-2-isopropyl-4-oxo-oxetan-3-yl]-carbamate]	92%	
40 nM	CCCCCCCOC(=O)N[C@H]1C(=O)O[C@H]1C [Example 40, Heptyl-N-[(2S,3R)-2-methyl-4-oxo-oxetan-3-yl]-carbamate]		

SMILES	IC50	inhibition at 3 µM	other results
C[C@@H]1OC(=O)[C@@H]1NC(=O)Oc1ccc(OCc2ccccc2)cc1 [Example 26, (4-benzyloxyphenyl)-N-[(2S,3R)-2-methyl-4-oxo-oxetan-3-yl]-carbamate]	290 nM		
